One assay has as its target T1, BRD3 (Homo sapiens, UniProt Q15059).
T1 construct: endogenous in cells; host or cells: RS4;11 (ATCC CRL-1873)
The experiment in a line: Western blot of BRD3 levels in RS4;11 cells. The assay is classed as cell-based. On the procedure:
(§1) Next, the light dependence of targeted protein degradation was analyzed in RS4;11 cells by western blot analysis of the BET proteins BRD2-4 (FIG. 5). To this end, cells were treated with increasing concentrations of our lead compound, PHOTAC-I-3, for 4 h and pulse-irradiated with 390 nm light (100 ms every 10 s). […] The cereblon-dependent degradation was confirmed by a competition experiment (FIG. 5E), and further validated by siRNA knockdown of cereblon (FIG. 13).
(§2) Cells were incubated with different concentrations of selected compounds. They were placed in a light-proof box and preirradiated for 1 min at 390 nm followed by 100 ms pulses every 10 s or were kept in the dark for 4 h.
(§3) Cultured cells were collected by centrifugation and washed twice with cold PBS. The supernatant was removed and each cell pellet was lysed in 100 μL NP40-Cell-Lysis Buffer+0.1% SDS+1 mM PMSF+ protease inhibitor cocktail (Sigma Aldrich) for 30 min on ice, with vortexing at 10-minute intervals. Afterwards, cells were centrifuged at 13.000 rpm for 10 min at 4° C. Samples were stored on ice and the supernatant was collected for protein concentration determination using a Thermofisher Scientific Pierce™ Coomassie Plus (Bradford) Assay Kit.
(§4) The samples were diluted each with 5 μL Laemmli sample buffer Invitrogen (NuPAGE LDS Sample Buffer 4×) and 1 μL DTT, heated at 95° C. for 5 min. […]
For orientation: Immunoblotting shows a protein as a band on a membrane.

In assay [1] the target is T2, BRD4 (Homo sapiens, UniProt O60885). Description: Western blot of BRD4 levels in RS4;11 cells. Format: cell-based. Details: endogenous in cells; host or cells: RS4;11 (ATCC CRL-1873). On the procedure: as §1
(§5) Western Immunoblot Analysis. Rabbit monoclonal Antibodies for BRD4 (#13440), β-Actin (#4970) c-Myc (#5605) and Anti-rabbit IgG, HRP-linked Antibody (#7074) were purchased from Cell Signalling Technologies.
as §2, §3
The samples were diluted each with 5 μL Laemmli sample buffer Invitrogen (NuPAGE LDS Sample Buffer 4×) and 1 μL DTT, heated at 95° C. for 5 min. Respectively 20 μL of each sample was loaded in a lane of a Bio-Rad Mini-PROTEAN TGX precast Gel, 4-20%, used with tris-glycine SDS Running buffer. The gel ran 5 min at 50 V, then 35 min at 140 V. Next step was the electrotransfer to a polyvinylidene difluoride (PVDF) membrane which was carried out using an iBlot™ 2 Dry Blotting System set to the standard program. After the transfer, the membrane was washed with 25 mL TB ST for 5 min and subsequent incubated in 25 mL of blocking buffer (1×TBST+5% nonfat dry milk, Blotto, Santa Cruz Biotechnology) for 1 h at room temperature. The membrane was washed three times for 5 min each with 15 mL of TBST and incubated in a 10 mL antibody dilution buffer with gentle agitation at 4° C. overnight (Actin: 1:1000; c-MYC: 1:1000; BRD4: 1:1000). The next day, the membrane was washed again three times for 5 min each with 15 mL TBST, followed by incubation with anti-rabbit, HRP-linked antibody (1:2000) in 10 mL blocking buffer with gentle agitation for 1 h at room temperature. Afterwards, the membrane was washed three times for 5 min each with 15 mL TBST and then incubated in 10 mL of Clarity Max Western ECL Substrate solution for 5 min. Chemoluminescence imaging was performed on a Bio-Rad ChemiDoc™ Imaging System.
LED illumination. For illumination of the cells we used the cell disco system as previously described in the literature^[25]. 390 nm 5 mm LEDs were purchased from Roithner Lasertechnik. Cells were preirradiated for 1 min at 390 nm, followed by 100 ms pulses every 10 s in 96- or 6-well plates.

For the next assay, the system named is c-MYC. Description: Immunoblot of c-MYC levels in RS4;11 cells. The assay is classed as cell-based, human. As for the experimental part: (§6) Photoactivatable degraders and inhibitors of BRD4, c-MYC levels were also affected.
The slight effect on c-MYC can be explained by inhibition of BRD4 with the (+)-JQ1 derivative PHOTAC-I-3 in the absence of targeted degradation.
as §5, §2, §3, §4

In assay [2] the target is T2, BRD4. The experiment in a line: Immunoblot of BRD4 degradation in MB-MDA-468 cells. Also noted: Immunoblot analysis after treatment of MB-MDA-231 cells with PHOTAC-I-3 for 18 h at different concentrations; endogenous in cells; host or cells: MB-MDA-231 (A10) and MB-MDA-468 (A11) (so in the source). Format: cell-based. As to conditions: 18 h, 390 nm pulses vs dark. On the procedure:
FIG. 10 depicts an immunoblot analysis of PHOTAC-I-3 A) Immunoblot analysis after treatment of MB-MDA-231 cells with PHOTAC-I-3 for 18 h at different concentrations. Cells were either irradiated with 100 ms pulses of 390 nm light every 10 s (left) or kept the dark (right). B) Immunoblot analysis after treatment of MB-MDA-468 cells with PHOTAC-I-3 for 18 h at different concentrations. Cells were either irradiated with 100 ms pulses of 390 nm light every 10 s (left) or kept the dark (right). (MWM, molecular weight marker). C) Immunoblot of BRD4 degradation in RS4;11 cells, promoted by PHOTAC-I-3 (300 nM) after 1 minute of irradiation (100 ms every 10 s), highlighting sustained degradation at the applied dosage.
as §6

Entries after “also recorded” stand apart in the source; their conditions may differ.

T1 sequence (Q15059 whole entry): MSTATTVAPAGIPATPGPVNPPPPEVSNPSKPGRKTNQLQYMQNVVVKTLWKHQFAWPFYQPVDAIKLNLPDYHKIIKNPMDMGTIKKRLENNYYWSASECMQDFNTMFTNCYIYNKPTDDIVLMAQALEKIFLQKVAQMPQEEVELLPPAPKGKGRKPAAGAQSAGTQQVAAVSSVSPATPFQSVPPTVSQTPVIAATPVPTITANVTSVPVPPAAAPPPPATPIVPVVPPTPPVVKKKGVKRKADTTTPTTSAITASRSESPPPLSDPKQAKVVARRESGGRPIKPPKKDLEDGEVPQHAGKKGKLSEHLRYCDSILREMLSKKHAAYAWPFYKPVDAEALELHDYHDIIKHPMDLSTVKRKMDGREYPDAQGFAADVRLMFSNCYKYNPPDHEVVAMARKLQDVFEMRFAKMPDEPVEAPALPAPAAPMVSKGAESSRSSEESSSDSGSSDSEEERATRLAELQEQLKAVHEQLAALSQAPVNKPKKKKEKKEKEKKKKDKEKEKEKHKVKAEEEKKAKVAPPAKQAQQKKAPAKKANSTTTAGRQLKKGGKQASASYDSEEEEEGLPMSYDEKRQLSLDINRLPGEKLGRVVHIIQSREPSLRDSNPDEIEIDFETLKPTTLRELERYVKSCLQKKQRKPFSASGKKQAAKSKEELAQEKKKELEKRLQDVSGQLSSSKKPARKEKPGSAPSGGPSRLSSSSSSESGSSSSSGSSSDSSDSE

With `COc1cc(/N=N/c2cccc3c2CN(C2CCC(=O)NC2=O)C3=O)cc(OC)c1OCC(=O)NCCCCNC(=O)C[C@@H]1N=C(c2ccc(Cl)cc2)c2c(sc(C)c2C)-n2c(C)nnc21` (stereo partly drawn) [PHOTAC-I-3, 2-((S)-4-(4-chlorophenyl)-2,3,9-trimethyl-6H-thieno[3,2-f][1,2,4]triazolo[4,3-a][1,4]diazepin-6-yl)-N-(4-(2-(4-((E)-(2-(2,6-dioxopiperidin-3-yl)-1-oxoisoindolin-4-yl)diazenyl)-2,6-dimethoxyphenoxy)acetamido)butyl)acetamide], the “exposure time after which BRD3 is largely absent” value on BRD3 (1 μM, 390 nm pulse irradiation) worked out at 1.5 h. Moreover, the BRD3 levels entry at BRD3 (4 h, irradiated with violet light (390 nm)) was “significantly reduced”. In addition, the “time dependence of BRD4 degradation” value on BRD4 [1] (1 μM, 390 nm pulse irradiation, compared with BRD2 and BRD3) was “degraded more slowly”. In addition, at BRD4 [1] (10 μM, 4 h, 390 nm), the “BRD4 degradation at high concentration (hook effect)” value is listed as “less degradation”. For the same compound, on BRD4 [1] (4 h, 390 nm pulses (100 ms every 10 s)), the BRD4 levels result was “pronounced decrease of BRD4 levels”. Also, the “BRD4 degradation in the dark after brief activation” value on BRD4 [1] (activation for 1 min, 300 nM) is “Persistent degradation of BRD4”. The c-MYC downregulation entry in the assay with c-MYC (390 nm pulse irradiation) was “more pronounced when cells were pulse-irradiated; also recorded: c-MYC downregulation over 24 hours”. Moreover, the c-MYC levels entry in the assay with c-MYC (in the dark) is “relatively little effect on c-MYC levels”. In addition, the BRD4 degradation result at BRD4 [2] is recorded as “light-dependent degradation of BRD4”.

The values above are taken from patent US20220143183A1, “PHOTOSWITCHABLE PROTACS AND SYNTHESIS AND USES THEREOF” (New York University, priority 2019, published 2022).
